Broadly, the inhibition is the change of the read-out against control, counted positive when it falls. What is called IC50 is the point on the concentration scale where inhibition reaches its midpoint.

A short description of experiment [1]: Antiinflammatory activity in human neutrophils assessed as inhibition of fMLP/CB-induced elastase release at 10 ug/mL after 5 mins by spectrophotometric analysis relative to control. Particulars: Neutrophil. Type of experiment: functional.
Experiment [2] is described as follows: Antiinflammatory activity in human neutrophils assessed as inhibition of fMLP/CB-induced elastase release after 5 mins by spectrophotometric analysis. Type of experiment: functional, cell-based. To be noted: Neutrophil.
Experiment [3] in a line: Antiinflammatory activity in human neutrophils assessed as inhibition of fMLP/CB-induced superoxide generation at 10 ug/mL after 5 mins by spectrophotometric analysis relative to control. The format is functional. To be noted: Neutrophil.
A short description of experiment [4]: Antiinflammatory activity in human neutrophils assessed as inhibition of fMLP/CB-induced superoxide generation after 5 mins by spectrophotometric analysis. Type of experiment: functional, cell-based. To be noted: Neutrophil.
In experiment [5] the test system is 3T3-L1. Nature of the experiment: Potentiation of insulin-stimulated glucose consumption in mouse 3T3L1 cells at 30 ug/mL after 24 hrs. The format is functional, cell-based.
The subject of experiment [6] is 3T3-L1. In words: Potentiation of insulin-stimulated glucose consumption in mouse 3T3L1 cells assessed as glucose concentration in culture medium at 30 ug/mL after 24 hrs (reference value: 427.4 mg/dL). Type of experiment: functional.
Experiment [7] deals with 3T3-L1. Nature of the experiment: Inhibition of lipid accumulation in mouse 3T3L1 cells at 30 ug/mL after 8 days by Oil red O staining-based microscopic analysis relative to control. Type of experiment: functional. To be noted: 3T3-L1, 192 h.

The source made the active and inactive calls. The rule behind the calls is not given here.

Regarding `CNC(=O)c1cc(Oc2ccc(NC(=O)Nc3ccc(Cl)c(C(F)(F)F)c3)cc2)ccn1` [SORAFENIB], the inhibition at 10 µg/mL in experiment [1] was 83%; in experiment [3], 70.9%. Further, the values for the IC50 in experiment [2] and in experiment [4] were 5.62 µM and 1.27 µM, respectively.
For the compound `C/C(=C\CCC(C)CO)c1ccc(CO)cc1O` (stereo unspecified), the values for the inhibition at 10 µg/mL in experiment [1] and in experiment [3] were 6.68% and 71.7%, respectively. Besides, the figures for the IC50 in experiment [2] and in experiment [4] were above 10 µg/mL and 21.5 µM, respectively. In addition, the result in experiment [5] was Active.
`COC(=O)c1cccc2oc3cc(CO)cc(O)c3c(=O)c12` [SYDOWININ A]: the inhibition at 10 µg/mL in experiment [1] stood at 28.7%; in experiment [3], 38.1%. For the same compound, the 50% inhibitory concentration (IC50) in experiment [2] and in experiment [4] was above 10 µg/mL in each case.
On to `C/C(=C\CCC(C)C)c1ccc(CO)cc1O`, for which the inhibition at 10 µg/mL stood at 84.3% in experiment [1] and 97.8% in experiment [3]. Also, the half-inhibitory concentration (IC50) in experiment [2] is 8.8 µM; in experiment [4], 6.11 µM.
For `COC(=O)c1c(O)ccc2oc3cc(CO)cc(O)c3c(=O)c12` [SYDOWININ B], in that order: 85%, 66.2%, 12.6 µM and 21.2 µM.
On to `COC(=O)[C@@H]1c2c(oc3cc(CO)cc(O)c3c2=O)C=C[C@H]1O`, for which the figures for the inhibition at 10 µg/mL in experiment [1] and in experiment [3] were 98.9% and 102%, respectively. For the same compound, the IC50 in experiment [2] stood at 6.6 µM; in experiment [4] it was 6 µM.
Consider `CO[C@@](C)(CCCC(C)C)c1ccc(CO)cc1O` [(7S)-(+)-7-O-METHYLSYDONOL], for which the inhibition at 10 µg/mL in experiment [1] was 29.8%; in experiment [3], 69%. In addition, the IC50 in experiment [2] was above 10 µg/mL; in experiment [4] it was 13.8 µM. In addition, in experiment [5], the result was Active.
With `CC(C)CCC[C@](C)(O)c1ccc(C(=O)O)cc1O`, the inhibition at 10 µg/mL was determined as 2.56% in experiment [1] and 60.2% in experiment [3]. The IC50 in experiment [2] is above 10 µg/mL; in experiment [4] it was 27.8 µM. Besides, in experiment [6], the Activity was determined as 381.4 mg/dL.
In the case of `Cc1cc(O)cc(Oc2cc(C)cc(O)c2)c1` [DIORCINOL], the inhibition at 10 µg/mL in experiment [1] was determined as 39.8%; in experiment [3] it was 92%. For the same compound, the values for the 50% inhibitory concentration (IC50) in experiment [2] and in experiment [4] were above 10 µg/mL and 12.2 µM, respectively.
Consider `CC(C)CCC[C@](C)(O)c1ccc(CO)cc1O` [(S)-(+)-SYDONOL], for which the inhibition at 10 µg/mL in experiment [1] is 65.3%; in experiment [3] it was 87%. Moreover, the half-maximal inhibitory concentration (IC50) in experiment [2] is 16.4 µM; in experiment [4] it was 5.23 µM. In addition, the inhibition at 30 µg/mL in experiment [7] was at most 48%. Also, the result in experiment [5] was Active. In addition, the Activity in experiment [6] was determined as 324.6 mg/dL.

The values above are taken from ChEMBL document CHEMBL2396565, “An epigenetic modifier enhances the production of anti-diabetic and anti-inflammatory sesquiterpenoids from Aspergillus sydowii” (Bioorg Med Chem, 2013).
